Source: patent publication USRE37781E1, “Substituted cyclic carbonyls and derivatives thereof useful as retroviral protease inhibitors” (DuPont Pharmaceuticals Company, priority 1991, dated 2002)
Like-named read-outs stand apart in the source and are kept apart here.

Legend:
[1] = molecular target: single-chain tethered dimer of HIV protease (Human immunodeficiency virus 1, UniProt P04585); assay: biochemical; assay type: biochemical; parameters: fused on or other part: A second copy of the same protease unit is joined to the first by a short peptide tether, giving one polypeptide
Description: HIV Protease Inhibition Assay—HPLC Method
Active protease was prepared as described therein by extraction with 67% acetic acid, dilution 33-fold with water, dialysis against water and then against a “refolding buffer” consisting of 20 mM MES, 1 mM dithiothreitol and 10% glycerol. Protease was stored as a stock preparation at 10 uM in refolding buffer.
Substrate: Peptide of sequence: aminobenzoyl-Ala-Thr-His-Gln-Val-Tyr-Phe(NO2)-Val-Arg-Lys-Ala containing p-nitrophenylalanine, was prepared by solid phase synthesis as previously described Cheng et al., op.cit. Stock solutions of 2 mM substrate were prepared in DMSO.
Inhibitory compounds were dissolved in sufficient DMSO to make 3 mM stock solutions. All further dilutions were prepared in “assay buffer”: 1M NaCl, 50 mM MES, pH 5.5, 1 mM EDTA, 1 mM DTT, […] glycerol.
Enzyme reaction: In a 2 ml screw-cap centrifuge tube were added 50 ul protease (final concentration 0.25 nM) and 0.1 ml inhibitory compound (final concentration […]). After 15 min preincubation at room temperature, the reaction was started with the addition of 0.05 ml substrate (final concentration 5 uM). Incubation was carried out at 30 C. for 1 hr. The reaction was stopped with 1 ml 0.1M ammonium hydroxide.
HPLC measurement of product formation: The product (aminobenzoyl-Ala-Thr-His-Gln-Val-Tyr) was separated from substrate on a Pharmacia MonoQ anion exchange column. The injection volume was 0.2 ml. The mobile phases were: A (20 mM trisHCl, pH 9.0, 0.02% sodium Azide, 10% acetonitrile), B (20 mM tris HCl, pH 9.0, 0.02% sodium azide, 0.5M ammonium formate, 10% acetonitrile). The mobile phases were pumped at 1 ml/min, with a gradient from 0 to 30% B in 5 min, 100% B for 4 min to wash the column, and a re-equilibration for 4 min. The retention time of the product was 3.6 min. Detection with a Shimadzu model RF535 fluorescence monitor was at 330 nm (excitation) and 430 (emission).

[2] = tested on: HIV-1 (RF) in MT-2 cells; assay: microbe, parasite or virus in culture; assay type: cell-based; conditions: Table 2d
Description: DNA Plasmids and in vitro RNA transcripts:
Plasmid pDAB 72 containing both gag and pol sequences of BH10 (bp 113-1816) cloned into PTZ 19R was prepared according to Erickson-Viitanen et al. AIDS Research and Human Retroviruses 1989, 5, 577. The plasmid was linearized with Bam HI prior to the generation of in vitro RNA transcripts using the Riboprobe Gemini system II kit (Promega) with T7 RNA polymerase. Synthesized RNA was purified by treatment with RNase free DNAse (Promega), phenol-chloroform extraction, and ethanol precipitation. RNA transcripts were dissolved in water, and stored at −70° C. The concentration of RNA was determined from the A260.
Biotinylated capture probes were purified by HPLC after synthesis on an Applied Biosystems (Foster City, Calif.) DNA synthesizer by addition of biotin to the 5′ terminal end of the oligonucleotide, using the biotin-phosphoramidite reagent of Cocuzza, Tet. Lett. 1989, 30, 6287. The gag biotinylated capture probe (5-biotin-[…] 3′) was complementary to nucleotides 889-912 of HXB2 and the pol biotinylated capture probe (5′-biotin-[…] 3′) was complementary to nucleotides 2374-2395 of HXB2. Alkaline phosphatase conjugated oligonucleotides used as reporter probes were prepared by Syngene (San Diego, Calif.). The pol reporter probe (5′ […] 3′) was complementary to nucleotides 2403-2425 of HXB2. The gag reporter probe (5′ […] 3′) was complementary to nucleotides 950-973 of HXB2. All nucleotide positions are those of the GenBank Genetic Sequence Data Bank as accessed through the Genetics Computer Group Sequence Analysis Software Package (Devereau Nucleic Acids Research 1984, 12, 387). The reporter probes were prepared as 0.5μM stocks in 2× SSC (0.3M NaCl, 0.03M sodium citrate), 0.05M Tris pH 8.8, 1 mg/mL BSA. The biotinylated capture probes were prepared as 10 μM stocks in water.
Streptavidin coated plates:
Nunc-immunomodule microtiter plate strips were coated by addition of 200 μL of streptavidin (30 ug/mL, Scripps, La Jolla, Calif.) in freshly prepared 10 mM sodium carbonate (pH 9.6). Plates were incubated overnight at 4° C. Streptavidin solution was aspirated from the wells and a blocking buffer composed of phosphate buffered saline (PBS), 20 mg/mL bovine serum albumin (crystalline, nuclease and protease free, Calbiochem) and 100 mg/mL lactose (Sigma) was added to the plates for 3 hrs at room temperature. Blocking buffer was removed from the wells, which were allowed to dry overnight at room temperature and subsequently stored at 4° C. in zip lock bags with desiccant. For the majority of the compound evaluation experiments, streptavidin coated plates were obtained from Du Pont Biotechnology Systems (Boston, Mass.).
MT-2, CEM, and H9 cells were maintained in RPMI 1640 supplemented with 5% fetal calf serum (FCS), 2 mM L-glutamine and 50 μg/mL gentamycin, all from Gibco. Laboratory strains of HIV-1 (RF, MN and IIIB) were propagated in H9 cells in the same medium. Virus stocks were prepared approximately 1 month after acute infection of H9 cells by clarification of the tissue culture medium and storage of aliquots at −70° C. […] Each aliquot of virus stock used for infection was thawed only once. In some cases, infected H9 cells were shifted to Dulbecco's modified Eagle's medium 3-10 days before collection of virus in order to generate virus stocks in medium with low biotin content. Clinical isolates of HIV that had been passaged once in MT-2 cells were used to infect fresh MT-2 cells in RPMI medium. Three days after infection, cells were pelleted, resuspended and culture continued in Dulbecco's modified Eagle's medium as above. Virus stocks of clinical isolates were prepaid 10-15 days after infection when cytopathic effects were apparent in the culture.

[3] = Table 2d, class symbols, read-out: HPLC K1
[4] = Table 2d, HIV protease inhibition, HPLC method, read-out: HPLC K1

**Q.** How did the Ki ([1]; read-out: HPLC K1, Table 2d, HIV protease inhibition, HPLC method) turn out when NCCCCCN1C(=O)N(CCCCCN)C(Cc2ccccc2)C(O)C(O)C1Cc1ccccc1 (stereo not shown) [15EP] was run?
**A.** The Ki was > 1 µM.

**Q.** What about the IC90 ([2]; Human immunodeficiency virus 1, MT2, 48 h, HIV RNA assay, read-out: IC90) of the same compound?
**A.** Its IC90 is > 50 mg/L.

**Q.** O=C1NC(Cc2ccccc2)C(O)C(O)C(Cc2ccccc2)N1CC1CCC(=NO)CC1 (stereo not shown) [Example 15VC] was tested. Which Ki [1, 3] did it give?
**A.** The Ki was 0.01 to 1 µM.

**Q.** What about the IC90 ([2]; class symbols) of the same compound?
**A.** The IC90 was “++/+ (The ++/+ is used in the cases where an IC90 was determined to be >50 μg/mL)”.

**Q.** With O=C1N(CCCCC(O)CBr)C(Cc2ccccc2)C(O)C(O)C(Cc2ccccc2)N1CCCCC(O)CBr (stereo not shown) [Example 13G] as the compound, how does the Ki ([1]; read-out: HPLC K1, Table 2d, class symbols) read?
**A.** The Ki was < 0.01 µM.

**Q.** What about the IC90 ([2]; Human immunodeficiency virus 1, MT2, 48 h, class symbols, read-out: IC90) of the same compound?
**A.** The IC90 was < 10 mg/L.

**Q.** For CC(C)CC1C(O)C(O)C(CC(C)C)N(Cc2ccccc2)C(=O)N1Cc1ccccc1 (stereo not shown) [Example 16Z], which Ki ([1]; Table 2e, read-out: K4 HPLC) is on record?
**A.** The Ki was 0.01 to 1 µM.

**Q.** Which Ki ([1]; read-out: K4 HPLC, Table 2e) does the source give for CC(C)CC1C(O)C(O)C(CC(C)C)N(Cc2ccccc2)C(=O)N1Cc1ccccc1 (stereo not shown) [Example 16AD] here?
**A.** The Ki was < 0.01 µM.

**Q.** For O=C(NCc1cccnc1)c1cccc(CN2C(=O)N(CC3CC3)C(Cc3ccccc3)C(O)C(O)C2Cc2ccccc2)c1 (stereo not shown) [15YD], which Ki [1, 4] is on record?
**A.** The Ki was < 0.01 µM.

**Q.** For O=C1N(Cc2ccccc2)C(CCCCO)C(O)C(O)C(CCCCO)N1Cc1ccccc1 (stereo not shown) [Example 16AO], which Ki ([1]; Table 2e, read-out: K4 HPLC) is on record?
**A.** Its Ki is > 1 µM.

**Q.** Which Ki ([1]; Table 2m, read-out: HPLC Ki) does the source give for O=C(NCCN1CCOCC1)c1cccc(CN2C(Cc3ccccc3)C(O)C(O)C(Cc3ccccc3)N(Cc3cccc(C(=O)NCCN4CCOCC4)c3)S2(=O)=O)c1 (stereo not shown) [23Z] here?
**A.** The Ki was 0.01 to 1 µM.

**Q.** What does the source list for ON=C1N(Cc2ccccc2)C(Cc2ccccc2)C(O)C(O)C(Cc2ccccc2)N1Cc1ccccc1 (stereo not shown) [Example 17A]?
**A.** Ki ([1]; Table 2f, read-out: HPLC Ki): 0.01 to 1 µM; Ki ([1]; second table headed Table 2f, read-out: HPLC Ki): 0.01 to 1 µM; Ki ([1]; third table headed Table 2f, read-out: HPLC Ki): 0.01 to 1 µM

**Q.** COc1ccc(CC2C(O)C(O)C(Cc3ccc(OC)cc3)N(Cc3ccccc3)C(=O)N2Cc2ccccc2)cc1 (stereo not shown) [20AG] was tested. Which Ki ([1]; Table 2i, read-out: HPLC Ki) did it give?
**A.** The Ki was < 0.01 µM.

**Q.** How did the Ki ([1]; Table 2e, read-out: K4 HPLC) turn out when CCCCC1C(O)C(O)C(CCCC)N(Cc2ccccc2)C(=O)N1Cc1ccccc1 (stereo not shown) [Example 16AG] was run?
**A.** Its Ki is > 1 µM.

**Q.** C=CCN1C(=O)N(CC=C)C(C(C)C)C(O)C(O)C1C(C)C (stereo not shown) [Example 16C] was tested. Which Ki ([1]; read-out: K4 HPLC, Table 2e) did it give?
**A.** The Ki was 0.01 to 1 µM.

**Q.** Which Ki ([1]; Table 2e, read-out: K4 HPLC) does the source give for O=C1N(Cc2ccccc2)C(CCCCCO)C(O)C(O)C(CCCCCO)N1Cc1ccccc1 (stereo not shown) [Example 16AN] here?
**A.** The Ki was > 1 µM.

**Q.** With CC(CCCN1C(=O)N(CCCC(C)n2ccnc2)[C@H](Cc2ccccc2)[C@H](O)[C@@H](O)[C@H]1Cc1ccccc1)n1ccnc1 (stereo partly shown) [15FK] as the compound, how does the Ki ([1]; HIV protease inhibition, HPLC method, Table 2d, read-out: HPLC K1) read?
**A.** The Ki was > 1 µM.

**Q.** How did the Ki [1, 4] turn out when O=C1N(Cc2cccc(-c3nc4ccccc4[nH]3)c2)C(Cc2ccccc2)C(O)C(O)C(Cc2ccccc2)N1Cc1cccc(-c2nc3ccccc3[nH]2)c1 (stereo not shown) [15AX] was run?
**A.** Its Ki is 0.01 to 1 µM.

**Q.** Which Ki [1, 3] does the source give for O=C1NC(Cc2ccccc2)C(O)C(O)C(Cc2ccccc2)N1CC1CC1CCCO (stereo not shown) [Example 13A] here?
**A.** Its Ki is 0.01 to 1 µM.

**Q.** CC1C(O)C(O)C(C)N(Cc2ccccc2)C(=O)N1Cc1ccccc1 (stereo not shown) [Example 16G] was tested. Which Ki ([1]; read-out: K4 HPLC, Table 2e) did it give?
**A.** Its Ki is > 1 µM.
